Values of other authors as cited in patent US11565004B2, “In vivo imaging of matrix metalloproteinases in lung disease” (The Trustees of Columbia University in the City of New York, priority 2016, dated 2023).

System: MMPs-1, -2, -3, -7, -9, -12, and -13

SMILES: COc1ccc(S(=O)(=O)N(Cc2cccnc2)[C@@H](C(=O)NO)C(C)C)cc1 [CGS27023A]
- affinities against MMPs: high affinities
